From ChEMBL document CHEMBL1240402 (2010)
In brackets after ≈: the same amount, converted by molar mass.

Tested on: Clostridium perfringens

Row | Compound | MIC
1 | CS(=O)(=O)c1ccc([C@@H](O)[C@@H](CF)NC(=O)C(Cl)Cl)cc1 [FLORFENICOL] | 16 mg/L (≈ 44.7 µM)
2 | CC(=O)NC[C@H]1CN(c2ccc(N3CCOCC3)c(F)c2)C(=O)O1 [LINEZOLID] | 64 mg/L (≈ 190 µM)
